Bounds are passed on as bounds.

The target in the experiment is T1, PDE1A (Homo sapiens, UniProt P54750).
T1 construct: purchased SignalChem
In words: In vitro detection of phosphodiesterase (PDE): PDE1A enzyme activity by fluorescence polarization immunoassay. The class given is biochemical. The settings on record: human-derived enzyme, cAMP or cGMP substrate; read-out: IC50s for PDE1. As to the method:
Test 1: In Vitro Detection of Phosphodiesterase (PDE)
the enzyme activity of PDE1A was determined by detecting the production of AMP/GMP by fluorescence polarization immunoassay, wherein AlexaFluor 633 labeled AMP/GMP was used to replace AMP/GMP to bind with the antibody.
Reaction buffer: 10 mM Tris-HCl, pH 7.5, 5 mM magnesium chloride, 0.01% Brij 35, 1 mM DTT and 1% DMSO;
Enzyme substrate: […] cAMP or cGMP (Ca^2+-calmodulin acts as a cofactor of PDE1A)
Detection reagent: Transcreener® AMP2/GMP2 antibody; AMP2/GMP2 AlexaFluor 633 tracer.
Experimental Procedure and Method:
1. Human-derived enzyme (commercially available from SignalChem) to be tested and substrate were diluted with freshly prepared reaction buffer;
2. The enzyme solution (with a concentration of 3 pM) was added to the holes of the microplates;
3. A series of solutions of the compounds in 100% DMSO (with the desired concentrations) were added to the holes containing the enzyme solution by Echo550, and then the microplates were incubated for 10 minutes at room temperature;
4. The substrate solution was added to the holes containing the enzyme and compounds to start the reaction;
5. The microplates were incubated for 1 hour under room temperature and vibration;
6. The detection mixture (tracer and antibody in stop buffer) was added to stop the enzyme reaction, and the microplates were incubated for 90 minutes under vibration;
7. The equipment EnVision (PerkinElmer), Cy5 FP Ex FP 620, Em S-pol 688/P-pol 688, FP mirror D658fp/D688 was used to detect the reaction mixture, and Ex/Em 620/688 was used to detect the fluorescence polarization.
In the Excel table, the enzyme activity corresponding to the FP signal was found on the AMP/GMP standard curve by reference to the DMSO negative control, and then was converted to product concentration (nM). GraphPad Prism was used to analyze and calculate the IC50 values.

As to `CC[C@@]12C=C(c3nc(C)c(C)s3)n3c4c(c5ccccc53)CCN(CCC1)[C@H]42` [Example 40, 2-((4^1S,13aS)-13a-ethyl-2,3,4^1,5,6,13a-hexahydro-1H-indolo[3,2,1-de]pyrido[3,2,1-ij][1,5]naphthyridin-12-yl)-4,5-dimethylthiazole], the IC50 fell in the range of 1 to 20 µM.
On to `CC[C@@]12C=C(/C(C#N)=N/OC)n3c4c(c5ccccc53)CCN(CCC1)[C@H]42` [Example 2, (4^1S,13aS,Z)-13a-ethyl-N-methoxyl-2,3,4^1,5,6,13a-hexahydro-1H-indolo[3,2,1-de]pyrido[3,2,1-ij][1,5]naphthyridine-12-carbimidoyl cyanide], for which the IC50 lay in the range of 1 to 20 µM.
On to `CCc1nc(C2=C[C@]3(CC)CCCN4CCc5c(n2c2ccccc52)[C@@H]43)oc1C` [Example 56, 4-ethyl-2-((4^1S,13aS)-13a-ethyl-2,3,4^1,5,6,13a-hexahydro-1H-indolo[3,2,1-de]pyrido[3,2,1-ij][1,5]naphthyridin-12-yl)-5-methyloxazole], for which the IC50 was at most 1 µM.
`CC[C@@]12C=C(c3ncc[nH]3)n3c4c(c5ccccc53)CCN(CCC1)[C@H]42` [Example 3, (4^1S,13aS)-13a-ethyl-12-(1H-imidazol-2-yl)-2,3,4^1,5,6,13a-hexahydro-1H-indolo[3,2,1-de]pyrido[3,2,1-ij][1,5]naphthyridine]: the IC50 was above 100 µM.
`CC[C@@]12C=C(c3nc(C)c(C)o3)n3c4c(c5ccc(S(=O)(=O)N(C)C)cc53)CCN(CCC1)[C@H]42` [Example 69, (4^1S,13aS)-12-(4,5-dimethyloxazol-2-yl)-13a-ethyl-N,N-dimethyl-2,3,4^1,5,6,13a-hexahydro-1H-indolo[3,2,1-de]pyrido[3,2,1-ij][1,5]naphthyridin-9-sulfonamide]: the IC50 fell in the range of 1 to 20 µM.
Regarding `CC[C@@]12C=C(c3nc(-c4ccccc4)no3)n3c4c(c5ccccc53)CCN(CCC1)[C@H]42` [Example 30, 5-((4^1S,13aS)-13a-ethyl-2,3,4^1,5,6,13a-hexahydro-1H-indolo[3,2,1-de]pyrido[3,2,1-ij][1,5]naphthyridin-12-yl)-3-phenyl-1,2,4-oxadiazole], the IC50 is above 100 µM.
`CC[C@@]12C=C(c3nc(C4CC4)no3)n3c4c(c5ccccc53)CCN(CCC1)[C@H]42` [Example 35, 3-Cyclopropyl-5-((4^1S,13aS)-13a-ethyl-2,3,4^1,5,6,13a-hexahydro-1H-indolo[3,2,1-de]pyrido[3,2,1-ij][1,5]naphthyridin-12-yl)-1,2,4-oxadiazole]: the IC50 lay within 1 to 20 µM.
Next, `CC[C@@]12C=C(c3cn4ccc(C(F)(F)F)cc4n3)n3c4c(c5ccccc53)CCN(CCC1)[C@H]42` [Example 44, (4^1S,13aS)-13a-ethyl-12(7-(trifluoromethyl)imidazo[1,2-a]pyridin-2-yl)-2,3,4^1,5,6,13a-hexahydro-1H-indolo[3,2,1-de]pyrido[3,2,1-ij][1,5]naphthyridine]: 20 to 100 µM; “(4^1S,13aS)-13a-ethyl-N-(3-methoxylpropyl)-12-(3-methyl-1,2,4-oxadiazol-5-yl)-2,3,4^1,5,6,13a-hexahydro-1H-indolo[3,2,1-de]pyrido[3,2,1-ij][1,5]naphthyridin-9-sulfonamide [Example 78]”: 20 to 100 µM; `CC[C@@]12C=C(c3noc(-c4cccs4)n3)n3c4c(c5ccccc53)CCN(CCC1)[C@H]42` [Example 28, 3-((4^1S,13aS)-13a-ethyl-2,3,4^1,5,6,13a-hexahydro-1H-indolo[3,2,1-de]pyrido[3,2,1-ij][1,5]naphthyridin-12-yl)-5-(thiophen-2-yl)-1,2,4-oxadiazole]: above 100 µM.
Next, `CC[C@@]12C=C(c3nc(C)c(C(=O)NC)o3)n3c4c(c5ccccc53)CCN(CCC1)[C@H]42` [Example 64, 2-((4^1S,13aS)-13a-ethyl-2,3,4^1,5,6,13a-hexahydro-1H-indolo[3,2,1-de]pyrido[3,2,1-ij][1,5]naphthyridin-12-yl)-N,4-dimethyloxazole-5-carboxamide]: at most 1 µM; `CC[C@@]12C=C(c3nc(-c4ccc(F)cc4)no3)n3c4c(c5ccccc53)CCN(CCC1)[C@H]42` [Example 32, 5-((4S,13aS)-13a-ethyl-2,3,4^1,5,6,13a-hexahydro-1H-indolo[3,2,1-de]pyrido[3,2,1-ij][1,5]naphthyridin-12-yl)-3-(4-fluorophenyl)-1,2,4-oxadiazole]: above 100 µM.
`CC[C@@]12C=C(c3cc(C)no3)n3c4c(c5ccccc53)CCN(CCC1)[C@H]42` [Example 47, 5-((4^1S,13aS)-13a-ethyl-2,3,4^1,5,6,13a-hexahydro-1H-indolo[3,2,1-de]pyrido[3,2,1-ij][1,5]naphthyridin-12-yl)-3-methylisoxazole]: the IC50 lay within 1 to 20 µM.
Next, `CC[C@@]12C=C(c3nc(C)c(C)o3)n3c4c(c5ccc(S(=O)(=O)NC)cc53)CCN(CCC1)[C@H]42` [Example 68, (4^1S,13aS)-12-(4,5-dimethyloxazol-2-yl)-13a-ethyl-N-methyl-2,3,4^1,5,6,13a-hexahydro-1H-indolo[3,2,1-de]pyrido[3,2,1-ij][1,5]naphthyridin-9-sulfonamide]: at most 1 µM; `CC[C@@]12C=C(C3=N[C@@H](C)CO3)n3c4c(c5ccccc53)CCN(CCC1)[C@H]42` [Example 38, (S)-2-((4^1S,13aS)-13a-ethyl-2,3,4^1,5,6,13a-hexahydro-1H-indolo[3,2,1-de]pyrido[3,2,1-ij][1,5]naphthyridin-12-yl)-4-methyl-4,5-dihydrooxazole]: 20 to 100 µM.
With `CC[C@@]12C=C(c3cccc(C)n3)n3c4c(c5ccccc53)CCN(CCC1)[C@H]42` [Example 12, (4^1S,13aS)-13a-ethyl-12-(6-methylpyridin-2-yl)-2,3,4^1,5,6,13a-hexahydro-1H-indolo[3,2,1-de]pyrido[3,2,1-ij][1,5]naphthyridine], the IC50 fell in the range of 1 to 20 µM.
On to `CC[C@@]12C=C(c3nc(C)c(C)o3)n3c4c(c5cc(S(=O)(=O)NCCCOC)ccc53)CCN(CCC1)[C@H]42` [Example 72, (4^1S,13aS)-12-(4,5-dimethyloxazol-2-yl)-13a-ethyl-N-(3-methoxylpropyl)-2,3,4^1,5,6,13a-hexahydro-1H-indolo[3,2,1-de]pyrido[3,2,1-ij][1,5]naphthyridin-9-sulfonamide], for which the IC50 was 20 to 100 µM.
For the molecule `CC[C@@]12C=C(C(O)C(F)(F)F)n3c4c(c5ccccc53)CCN(CCC1)[C@H]42` (stereo partly drawn) [Example 1, 1-((4^1S,13aS)-13a-ethyl-2,3,4^1,5,6,13a-hexahydro-1H-indolyl[3,2,1-de]pyridyl[3,2,1-ij][1,5]naphthyridine-12-yl)-2,2,2-trifluoroethanol], the IC50 was above 100 µM.
On to “(4^1S,13aS)-13a-ethyl-N-methyl-12-(3-methyl-1,2,4-oxadiazol-5-yl)-2,3,4^1,5,6,13a-hexahydro-1H-indolo[3,2,1-de]pyrido[3,2,1-ij][1,5]naphthyridin-8-sulfonamide [Example 79]”, for which the IC50 is 1 to 20 µM.
Take `CC[C@@]12C=C(c3cncc(C)n3)n3c4c(c5ccccc53)CCN(CCC1)[C@H]42` [Example 10, (4^1S,13aS)-13a-ethyl-12-(6-methylpyrazin-2-yl)-2,3,4^1,5,6,13a-hexahydro-1H-indolo[3,2,1-de]pyrido[3,2,1-ij][1,5]naphthyridine]: the IC50 lay within 1 to 20 µM.
Next, `CC[C@@]12C=C(c3csc(N)n3)n3c4c(c5ccccc53)CCN(CCC1)[C@H]42` [Example 43, 4-((4^1S,13aS)-13a-ethyl-2,3,4^1,5,6,13a-hexahydro-1H-indolo[3,2,1-de]pyrido[3,2,1-ij][1,5]naphthyridin-12-yl)-thiazole-2-amine]: 20 to 100 µM; `CC[C@@]12C=C(c3ncc(C)o3)n3c4c(c5ccccc53)CCN(CCC1)[C@H]42` [Example 51, 2-((4^1S,13aS)-13a-ethyl-2,3,4^1,5,6,13a-hexahydro-1H-indolo[3,2,1-de]pyrido[3,2,1-ij][1,5]naphthyridin-12-yl)-5-methyloxazole]: 1 to 20 µM; `CC[C@@]12C=C(c3nc(C)c(C(N)=O)o3)n3c4c(c5ccccc53)CCN(CCC1)[C@H]42` [Example 62, 2-((4^1S,13aS)-13a-ethyl-2,3,4^1,5,6,13a-hexahydro-1H-indolo[3,2,1-de]pyrido[3,2,1-ij][1,5]naphthyridin-12-yl)-4-methyloxazole-5-carboxamide]: 1 to 20 µM.
Turning to `CCC/C(=N\OC)C1=C[C@]2(CC)CCCN3CCc4c(n1c1ccccc41)[C@@H]32` [Example 48, 1-((4^1S,13aS)-13a-ethyl-2,3,4^1,5,6,13a-hexahydro-1H-indolo[3,2,1-de]pyrido[3,2,1-ij][1,5]naphthyridin-12-yl)butan-1-one-O-methyl oxime], the IC50 is 1 to 20 µM.
Take `CC[C@@]12C=C(c3noc(C4CCN(C(=O)OC(C)(C)C)CC4)n3)n3c4c(c5ccccc53)CCN(CCC1)[C@H]42` [Example 26, Tert-butyl-4-(3-((4^1S,13aS)-13a-ethyl-2,3,4^1,5,6,13a-hexahydro-1H-indolo[3,2,1-de]pyrido[3,2,1-ij][1,5]naphthyridin-12-yl)-1,2,4-oxadiazol-5-yl)piperidine-1-carboxylate]: the IC50 is above 100 µM.

The record behind these values is patent publication US10017507B2, “Diaza-benzofluoranthrene compounds” (HARBIN PHARMACEUTICAL GROUP CO., LTD. GENERAL …, priority 2015, dated 2018).
